From paper PMC9830933 (European Journal of Medicinal Chemistry, 2023)

What was measured:
MHV-A59 [1] = assay: In vitro anti-MHV-A59 activity assay in L929 cells; format: cell-based, murine coronavirus mouse hepatitis virus A-59; settings: for potency relative to GS-441524 (MHV-A59 EC50), fold more potent: vs GS-441524 EC50 = 10.01 μM; for effect on cellular replication of MHV-A59 (in words): up to 200 μM
Aqueous solubility = format: physicochemical
MHV-A59 [2] = assay: Mouse MHV efficacy study; format: in vivo, BALB/c mice; settings: for viral titers (MHV-A59 RNA copies) in the liver (in words): mouse, in vivo
FCoV = settings: intraperitoneal injection, FCoV-afflicted cats; cited from earlier work
[3] = ATV041 10, 50, 200 mg/kg oral QD, 3 dpi

CC(C(=O)OC[C@H]1O[C@@](C#N)(c2ccc3c(N)ncnn23)[C@H](O)[C@@H]1O)c1cccc(Oc2ccccc2)c1 (stereo partly drawn) [ATV038, ((2R,3S,4R,5R)-5-(4-aminopyrrolo[2,1-f][1,2,4]triazin-7-yl)-5-cyano-3,4-dihydroxytetrahydrofuran-2-yl)methyl 2-(3-phenoxyphenyl)propanoate]
potency relative to GS-441524 (MHV-A59 EC50), fold more potent (MHV-A59 [1]): about 8 fold | aqueous solubility (in words) (Aqueous solubility): slightly better solubility

COc1ccc2cc([C@H](C)C(=O)OC[C@H]3O[C@@](C#N)(c4ccc5c(N)ncnn45)[C@H](O)[C@@H]3O)ccc2c1 [ATV039, ((2R,3S,4R,5R)-5-(4-aminopyrrolo[2,1-f][1,2,4]triazin-7-yl)-5-cyano-3,4-dihydroxytetrahydrofuran-2-yl)methyl (S)-2-(6-methoxynaphthalen-2-yl)propanoate]
aqueous solubility (in words) (Aqueous solubility): slightly better solubility

CC(C(=O)OC[C@H]1O[C@@](C#N)(c2ccc3c(N)ncnn23)[C@H](O)[C@@H]1O)c1cccc(C(=O)c2ccccc2)c1 (stereo partly drawn) [ATV040, ((2R,3S,4R,5R)-5-(4-aminopyrrolo[2,1-f][1,2,4]triazin-7-yl)-5-cyano-3,4-dihydroxytetrahydrofuran-2-yl)methyl 2-(3-benzoylphenyl)propanoate]
aqueous solubility (in words) (Aqueous solubility): significantly improved the solubility

CC(C)Cc1ccc(C(C)C(=O)OC[C@H]2O[C@@](C#N)(c3ccc4c(N)ncnn34)[C@H](O)[C@@H]2O)cc1 (stereo partly drawn) [ATV041, ((2R,3S,4R,5R)-5-(4-aminopyrrolo[2,1-f][1,2,4]triazin-7-yl)-5-cyano-3,4-dihydroxytetrahydrofuran-2-yl)methyl 2-(4-isobutylphenyl)propanoate]
potency relative to GS-441524 (MHV-A59 EC50), fold more potent (MHV-A59 [1]): about 8 fold | aqueous solubility (in words) (Aqueous solubility): slightly better solubility | survival rate (MHV-A59 [2]; 10 mg/kg oral QD, 23-day observation): 100% | pro-inflammatory factors in the lungs (in words) (MHV-A59 [2]; 200 mg/kg oral QD, 3 dpi): considerably reduced to a level similar to the mock-infected mice | liver histopathology (H&E) (in words) (MHV-A59 [2]; 3 dpi): obvious remission effects | lung histopathology (H&E) (in words) (MHV-A59 [2]; 3 dpi): alleviated symptoms | dose dependence of inhibition of viral replication in the liver (in words) (MHV-A59 [2]; [3]): dose-dependently inhibited | dose dependence of inhibition of viral replication in the lungs (in words) (MHV-A59 [2]; [3]): dose-dependent inhibition | viral titers (MHV-A59 RNA copies) in the liver (in words) (MHV-A59 [2]): below the detection limit | plasma ALT and AST (in words) (MHV-A59 [2]; serum chemical analysis, 3 dpi): significantly reduced

N#C[C@@]1(c2ccc3c(N)ncnn23)O[C@H](COC(=O)Cc2ccccc2Nc2c(Cl)cccc2Cl)[C@@H](O)[C@H]1O [ATV042, ((2R,3S,4R,5R)-5-(4-aminopyrrolo[2,1-f][1,2,4]triazin-7-yl)-5-cyano-3,4-dihydroxytetrahydrofuran-2-yl)methyl 2-(2-((2,6-dichlorophenyl)amino)phenyl)acetate]
aqueous solubility (in words) (Aqueous solubility): hardly soluble

COc1ccc2c(c1)c(CC(=O)OC[C@H]1O[C@@](C#N)(c3ccc4c(N)ncnn34)[C@H](O)[C@@H]1O)c(C)n2C(=O)c1ccc(Cl)cc1 [ATV043, ((2R,3S,4R,5R)-5-(4-aminopyrrolo[2,1-f][1,2,4]triazin-7-yl)-5-cyano-3,4-dihydroxytetrahydrofuran-2-yl)methyl 2-(1-(4-chlorobenzoyl)-5-methoxy-2-methyl-1H-indol-3-yl)acetate]
aqueous solubility (in words) (Aqueous solubility): hardly soluble

N#C[C@@]1(c2ccc3c(N)ncnn23)O[C@H](CO)[C@@H](O)[C@H]1O [GS-441524, 1′-CN-4-aza-7,9-dideazaadenosine C-nucleoside, reference compound]
viral titer / viral replication in the lungs (in words) (MHV-A59 [2]; 100 mg/kg GS-441524 (B1) or 200 mg/kg ATV041 (C3), same molar concentration, oral QD, 3 dpi): about one order of magnitude | lung histopathology (H&E) (in words) (MHV-A59 [2]; 3 dpi): did not demonstrate protect effects | viral titers (MHV-A59 RNA copies) in the liver (in words) (MHV-A59 [2]): below the detection limit | cure rate (FCoV): up to 96%

CC(C)Cc1ccc(C(C)C(=O)O)cc1 (centres unmarked) [Ibuprofen, reference compound]
effect on cellular replication of MHV-A59 (in words) (MHV-A59 [1]; Fig. S1): did not affect | effect on cellular replication of MHV-A59 (in words) (MHV-A59 [1]; Fig. S1, listed as ibuprofen): did not inhibit | antiviral effect in lung and liver (in words) (MHV-A59 [2]; ibuprofen 70 mg/kg oral QD dosed alone, 3 dpi): did not show an antiviral effect
